Measurements: patent US4880820A, “Guanine derivatives” (Merck & Co., Inc., priority 1988, dated 1989)
≈ marks a conversion by molar mass, not a printed value.

How the values were obtained:
[1] = tested on: Herpes simplex virus Type 1 (Schooler); test: Method 1: inhibition of viral induced cytopathology in primary rabbit kidney cell cultures, HSV-1; format: cell-based; settings: Human alphaherpesvirus 1; HSV-1 (Schooler), primary rabbit kidney cells; total suppression of cytopathology in 50% of cultures; read-out: Minimum Effective Concentration
Procedure: (§1) Method 1: Confluent monolayers of primary rabbit kidney cell cultures were refed with maintenance medium containing serial dilutions of the test compounds and incubated overnight at 37° C. At each dilution, four cultures were challenged with approximately 10 TCID50 HSV-1, four cultures were challenged with approximately 10 TCID50 HSV-2,and two cultures were left as toxicity controls. Cultures were reincubated at 37° C. and observed for viral induced cytopathology at days 5 and 7. Minimum Effective Concentration (μg/ml) is defined as the concentration of antiviral compound required to totally suppress the development of viral cytopathology in 50% of the infected rabbit kidney cell cultures.

[2] = tested on: Herpes simplex virus type 1 (HSV-1), strain Schooler; test: Parenteral (subcutaneous) treatment of Herpes simplex virus type 1 infection in mice; format: in vivo, ICR/Ha mice; settings: s.c.
Procedure: (§2) Twenty gram ICR/Ha mice were injected intraperitoneally (ip) with 0.5 ml of a 10^-5 dilution of a stock preparation of Herpes simplex virus type 1 (HSV-1), strain Schooler. This virus challenge infected each animal with approximately 50 to 100 LD50. Starting immediately after virus infection and continuing twice daily for 4 days, each animal was injected subcutaneously in groups of 10 with: 125 μg, 31 μg, 8 μg or 2 μg of compounds A, B or C; or placebo (physiological saline, pH 11.5). All compounds were solubilized in physiological saline, pH 11.5. The mice were observed daily for 15 days at the same time each day and the day of death was recorded for each animal.
Statistical analyses [reference: Liddel, F.D.K., Evaluation of Survival in Challenge Experiments, Microbiol. Rev., 42, 237 (1978)]were performed on survival times transformed by the negative exponential transformation:
t=number of days an animal survived
T=duration of trial (15 days)
A continuity correction was used to account for daily observation:
Within each group, mice surviving through the trial period were assigned equally values of 0.9 and 1.0 to adjust for termination of the trial.
Average survival time per group was calculated from average corrected transformed survival times [fc (t)] as follows:
t avg=[T/log(0.1).[log(1-fc (t)]

[3] = tested on: Herpes simplex virus Type 2 (Curtis); test: Method 1: inhibition of viral induced cytopathology in primary rabbit kidney cell cultures, HSV-2; format: cell-based; settings: Human alphaherpesvirus 2; HSV-2 (Curtis), primary rabbit kidney cells; total suppression of cytopathology in 50% of cultures; read-out: Minimum Effective Concentration
Procedure: as §1

[4] = tested on: Herpes simplex virus type 1 (HSV-1), strain Schooler; test: Oral treatment of intraperitoneal HSV-1 infection of mice (Example 16); format: in vivo, ICR/Ha mice
Procedure: as §2, with “(i.p.)” for “(ip)”, “LD50 s.” for “LD50.”, “7” for “4”, “treated by oral gavage” for “injected subcutaneously”, “with: 250 μg, 125 μg, 8 μg or 2 μg of (S)-9-(2,3-dihydroxy-1-propoxymethyl)guanine; 500 μg,” for “with:”, “racemic 9-(2,3-dihydroxy-1-propoxymethyl)guanine;” for “compounds A, B or C;”
(§3) The statistical analyses were carried out as described in Example 15.

[5] = tested on: Herpes simplex virus Type 1 (Schooler); test: Method 2: virus plaque reduction in MRC-5 cells, HSV-1; format: cell-based; settings: Human alphaherpesvirus 1, MRC5, 72 h; HSV-1 (Schooler), MRC-5 cells, 3 days; 50% reduction of plaque development; read-out: ED50 (the source's name)
Procedure: Method 2: Confluent monolayers of MRC-5 cells were incubated for one hour at 37° C. with 50-100 plaque forming units of the indicated virus. Following incubation, the cell monolayers were refed with maintenance medium containing 2% methyl cellulose and the chemical agent indicated. Duplicate cultures were incubated with each concentration of the chemical agent tested. Following further incubation for 3 days at 37° C., the monolayers were stained and the developed virus plaques were counted. The concentration (μg/ml) of each chemical agent which reduced plaque development by 50% (ED50) was determined.

[6] = tested on: Herpes simplex virus type 1 (HSV-1), strain Schooler; test: Oral treatment of intraperitoneal HSV-1 infection of mice (Example 17); format: in vivo, ICR/Ha mice; settings: for Percent Survival: at 15 days
Procedure: Twenty gram ICR/Ha mice were injected intraperitoneally (i.p.) with 0.5 ml of a 10^-5 dilution of a stock preparation of Herpes Simplex virus type 1 (HSV-1), strain Schooler. This virus challenge infected mice with approximately 50 to 100 LD50. Starting immediately after virus infection and continuing twice daily for 7 days, each animal was treated by oral gavage in groups of 10 with: 500 μg, 125 μg, 31 μg or 8 μg of (S)-9-(2,3-dihydroxy-1propoxymethyl)guanine; 500 μg, 125 μg, 31 μg or 8 μg of acyclovir or placebo (physiological saline, pH 11.5). All compounds were solubilized in physiological saline, pH 11.5.
as §3

[7] = tested on: Herpes simplex virus type 1 (HSV-1), strain Schooler; test: Parenteral (subcutaneous) treatment of Herpes simplex virus type 1 infection in mice; format: in vivo, ICR/Ha mice; settings: tested not at the same time as A, B, C; for Percent Survival: at 15 days
[8] = 2 μg/dose twice daily for 4 days, 0.2 mg/kg/day, ^3 (all): not statistically different from placebo
[9] = 2 μg/dose twice daily for 4 days, 0.2 mg/kg/day, at 15 days
[10] = 8 μg/dose twice daily for 4 days, 0.8 mg/kg/day, ^3 (all): not statistically different from placebo
[11] = 8 μg/dose twice daily for 4 days, 0.8 mg/kg/day, at 15 days
[12] = 31 μg/dose twice daily for 4 days, 3.1 mg/kg/day, ^3 (all): not statistically different from placebo
[13] = 31 μg/dose twice daily for 4 days, 3.1 mg/kg/day, at 15 days
[14] = 125 μg/dose twice daily for 4 days, 12.5 mg/kg/day, ^3 (B, acyclovir): not statistically different from placebo
[15] = 125 μg/dose twice daily for 4 days, 12.5 mg/kg/day, at 15 days (acyclovir not at the same time)
[16] = 31 μg/dose twice daily for 7 days, 3.1 mg/kg/day, ^3 (all): not statistically different from placebo
[17] = 31 μg/dose twice daily for 7 days, 3.1 mg/kg/day, at 15 days (acyclovir not at the same time)
[18] = 125 μg/dose twice daily for 7 days, 12.5 mg/kg/day, ^3 (racemate, acyclovir): not statistically different from placebo
[19] = 125 μg/dose twice daily for 7 days, 12.5 mg/kg/day, at 15 days (acyclovir not at the same time)
[20] = 500 μg/dose twice daily for 7 days, 50 mg/kg/day (acyclovir not at the same time)
[21] = 500 μg/dose twice daily for 7 days, 50 mg/kg/day, at 15 days (acyclovir not at the same time)
[22] = 125 μg/dose twice daily for 7 days, 12.5 mg/kg/day
[23] = 500 μg/dose twice daily for 7 days, 50 mg/kg/day

Compound | minimal effective concentration [1] | Avg. Survival Time [2, 8] | Percent Survival [2, 9] | Avg. Survival Time [2, 10] | Percent Survival [2, 11] | Avg. Survival Time [2, 12] | Percent Survival [2, 13] | Avg. Survival Time [2, 14] | Percent Survival [2, 15] | minimal effective concentration [3] | Avg. Survival Time [4, 16] | Percent Survival [4, 17] | Avg. Survival Time [4, 18] | Percent Survival [4, 19] | Avg. Survival Time [4, 20] | Percent Survival [4, 21] | EC50 [5] | also measured
Nc1nc2c(ncn2COCC(O)CO)c(=O)[nH]1 (racemic) [C, Racemic 9-(2,3-dihydroxy-1-propoxymethyl)guanine] | 3.1 to 6 µg/mL | 6.7 days | 10% | 6.6 days | 0% | 7.2 days | 0% | 8.6 days | 20% | 6 to 12 µg/mL | 7.6 days | 0% | 8.4 days | 10% | 10.7 days | 20% | 1 µg/mL (≈ 3.92 µM) | Avg. Survival Time ([4]; 2 μg/dose twice daily for 7 days, 0.2 mg/kg/day, ^3 (all): not statistically different from placebo): 6.9 days; Percent Survival ([4]; 2 μg/dose twice daily for 7 days, 0.2 mg/kg/day, at 15 days): 0%; Avg. Survival Time ([4]; 8 μg/dose twice daily for 7 days, 0.8 mg/kg/day, ^3 (all): not statistically different from placebo): 6.8 days; Percent Survival ([4]; 8 μg/dose twice daily for 7 days, 0.8 mg/kg/day, at 15 days): 0%; protection over placebo-treated animals, as measured by average survival time ([4]; 50 mg/kg/day): conferred significant protection over placebo-treated animals
Nc1nc2c(ncn2COCCO)c(=O)[nH]1 [Acyclovir, 9-(2-hydroxyethoxymethyl)guanine] | – | – | – | – | – | – | – | 7.0 days | 6% | – | 6.3 days | 0% | 6.6 days | 0% | 8.2 days | 20% | – | Avg. Survival Time ([6]; 8 μg/dose twice daily for 7 days, 0.8 mg/kg/day, ^b (all): not statistically different from placebo): 6.1 days; Percent Survival ([6]; 8 μg/dose twice daily for 7 days, 0.8 mg/kg/day): 0%; Avg. Survival Time ([6]; 31 μg/dose twice daily for 7 days, 3.1 mg/kg/day, ^b (all): not statistically different from placebo): 6.5 days; Percent Survival ([6]; 31 μg/dose twice daily for 7 days, 3.1 mg/kg/day): 0%; Avg. Survival Time [6, 22]: 7.6 days; Percent Survival [6, 22]: 10%; Avg. Survival Time [6, 23]: 8.7 days; Percent Survival [6, 23]: 20%; protection over placebo-treated animals, as measured by average survival time ([6]; 12.5 mg/kg/day): conferred significant protection over placebo-treated animals; protection over placebo-treated animals, as measured by average survival time ([6]; 50 mg/kg/day): conferred significant protection over placebo-treated animals; Percent Survival ([4]; 1000 μg/dose, 100 mg/kg/day, at 15 days, tested not at the same time): 60%; Avg. Survival Time ([4]; 1000 μg/dose, 100 mg/kg/day, tested not at the same time): 11.4 days; Percent Survival ([7]; 500 μg/dose, 50 mg/kg/day): 0%; Avg. Survival Time ([7]; 500 μg/dose, 50 mg/kg/day): 7.8 days; Percent Survival ([7]; 1000 μg/dose, 100 mg/kg/day): 10%; Avg. Survival Time ([7]; 1000 μg/dose, 100 mg/kg/day): 7.8 days
Nc1nc2c(ncn2COC[C@H](O)CO)c(=O)[nH]1 [B, (R)-9-(2,3-dihydroxy-1-propoxymethyl)guanine] | 25 µg/mL | 6.0 days | 0% | 6.3 days | 0% | 6.5 days | 10% | 7.5 days | 10% | 25 to 50 µg/mL | – | – | – | – | – | – | 6.2 µg/mL (≈ 24.3 µM) | –
